Key:
MV-4-11 = assay: Cell growth inhibition assay (CellTiter-Glo), MV-4-11; format: cell-based, human; details: MV-4-11 cells, 4 days; for GI50: Homo sapiens, MV4-11, 96 h, half-maximal growth inhibition; for MV-4-11 TGI: total growth inhibition
Summary of the method: (§1)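 Proliferation and viability are quantified by CellTiter-Glo after four days of incubation with serially diluted compound (maximum 10 μM). Four-parameter curve fitting gives IC50 and TGI.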

THP-1 = assay: Cell growth inhibition assay (CellTiter-Glo), THP-1; format: cell-based, human; details: THP-1 cells, 4 days; for GI50: Homo sapiens, 96 h, half-maximal growth inhibition; for THP-1 TGI: total growth inhibition
Summary of the method: as §1

BRD4 = BRD4 (Homo sapiens (Human), UniProt O60885); assay: TR-FRET in-vitro binding assay for BRD4; details: 45 nM His-Brd4(44-477), acetyl-histone H4 (AcK 5, 8, 12, 16) peptide
Summary of the method: (§2)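 TR-FRET binding read after 35 min incubation at 30° C. Compounds dispensed from 90% DMSO solutions and tested at 8 concentrations in a 13.55 μL total reaction volume.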

CREBBP = CREBBP (Homo sapiens (Human), UniProt Q92793); assay: AlphaScreen in-vitro binding assay for CREBBP; details: 324 nM His-CREBBP (1081-1197), acetyl-histone H4 (AcK 5, 8, 12) peptide
Summary of the method: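 IC50 values were derived by non-linear regression of percent inhibition across 8 compound concentrations. Protein was His-tagged CREBBP bromodomain (1081-1197), peptide acetyl-histone H4 (AcK 5, 8, 12), in HEPES pH 7.5 buffer. Read-out was AlphaScreen with Ni-chelate acceptor and streptavidin donor beads, 35 min at 30° C then 60 min at RT.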

BRD2 = BRD2 (Homo sapiens (Human), UniProt P25440); assay: TR-FRET in-vitro binding assay for BRD2; details: 45 nM His-Brd2(60-472), acetyl-histone H4 (AcK 5, 8, 12, 16) peptide
Summary of the method: as §2

K-562 = assay: Cell growth inhibition assay (CellTiter-Glo), K-562; format: cell-based, human; details: K-562 cells, 4 days; for GI50: Homo sapiens, K562, 96 h, half-maximal growth inhibition; for K-562 TGI: total growth inhibition
Summary of the method: as §1

BRD3 = BRD3 (Homo sapiens (Human), UniProt Q15059); assay: TR-FRET in-vitro binding assay for BRD3; details: 45 nM His-Brd3(20-477), acetyl-histone H4 (AcK 5, 8, 12, 16) peptide
Summary of the method: as §2

BRD2, sequence (P25440 60-472): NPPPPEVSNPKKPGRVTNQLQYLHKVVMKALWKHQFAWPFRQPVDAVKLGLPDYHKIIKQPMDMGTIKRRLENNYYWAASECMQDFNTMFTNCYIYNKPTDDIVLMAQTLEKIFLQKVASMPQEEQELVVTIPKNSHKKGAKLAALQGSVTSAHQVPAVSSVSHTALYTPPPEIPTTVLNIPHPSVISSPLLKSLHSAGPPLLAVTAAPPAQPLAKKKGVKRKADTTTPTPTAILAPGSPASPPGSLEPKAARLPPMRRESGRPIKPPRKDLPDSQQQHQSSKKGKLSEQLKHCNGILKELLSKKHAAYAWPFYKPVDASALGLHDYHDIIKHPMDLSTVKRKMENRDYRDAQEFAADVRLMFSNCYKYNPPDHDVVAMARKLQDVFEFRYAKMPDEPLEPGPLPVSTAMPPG
BRD3, sequence (Q15059 20-477): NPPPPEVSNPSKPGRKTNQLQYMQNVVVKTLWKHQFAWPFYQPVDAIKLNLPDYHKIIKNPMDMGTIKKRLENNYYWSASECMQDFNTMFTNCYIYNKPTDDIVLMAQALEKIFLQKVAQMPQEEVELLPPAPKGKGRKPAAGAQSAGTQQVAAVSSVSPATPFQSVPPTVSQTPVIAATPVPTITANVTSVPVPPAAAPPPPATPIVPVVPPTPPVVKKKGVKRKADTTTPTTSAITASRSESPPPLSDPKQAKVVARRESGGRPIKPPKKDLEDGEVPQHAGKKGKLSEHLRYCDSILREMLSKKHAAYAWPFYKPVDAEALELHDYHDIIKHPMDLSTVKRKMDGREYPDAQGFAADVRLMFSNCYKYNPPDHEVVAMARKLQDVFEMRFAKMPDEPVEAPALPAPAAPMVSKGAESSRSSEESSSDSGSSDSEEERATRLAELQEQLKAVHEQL
CREBBP, sequence (Q92793 1081-1197): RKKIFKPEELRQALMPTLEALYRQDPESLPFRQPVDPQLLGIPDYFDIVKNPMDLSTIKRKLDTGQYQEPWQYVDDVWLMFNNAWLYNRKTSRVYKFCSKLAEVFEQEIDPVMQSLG

Row | Compound | GI50 (MV-4-11) | GI50 (THP-1) | IC50 (BRD4) | IC50 (CREBBP) | IC50 (BRD2) | GI50 (K-562) | IC50 (BRD3) | MV-4-11 TGI (MV-4-11) | THP-1 TGI (THP-1) | K-562 TGI (K-562)
1 | Cn1ccc2c1C(c1ccccc1)N(c1cc(Cl)c(=O)n(C)c1)C2=O (centres unmarked) [Example 86, 5-(5-chloro-1-methyl-6-oxo-1,6-dihydropyridin-3-yl)-1-methyl-6-phenyl-5,6-dihydropyrrolo[3,4-b]pyrrol-4(1H)-one] | 338 nM | 392 nM | 437 nM | 18400 nM | 433 nM | 1100 nM | 277 nM | 0.642 µM | 0.7955 µM | >10 µM
2 | Cn1ccc2c1C(c1ccc(Cl)c(F)c1)N(c1cc(Cl)c(=O)n(C)c1)C2=O (centres unmarked) [Example 90, 5-(5-chloro-1-methyl-6-oxo-1,6-dihydropyridin-3-yl)-6-(4-chloro-3-fluorophenyl)-1-methyl-5,6-dihydropyrrolo[3,4-b]pyrrol-4(1H)-one] | 222 nM | 218 nM | 267 nM | 1450 nM | 265 nM | 618 nM | 196 nM | 0.4075 µM | 0.4465 µM | >10 µM
3 | Cc1cc(N2C(=O)c3cc(-c4ccc(=O)n(C)c4)n(C)c3C2c2ccc(Cl)cc2)cn(C)c1=O (centres unmarked) [Example 46, 6-(4-chlorophenyl)-5-(1,5-dimethyl-6-oxo-1,6-dihydropyridin-3-yl)-1-methyl-2-(1-methyl-6-oxo-1,6-dihydropyridin-3-yl)-5,6-dihydropyrrolo[3,4-b]pyrrol-4(1H)-one] | 165 nM | 525 nM | 14 nM | 280 nM | 19 nM | 1600 nM | 16 nM | 0.292 µM | 1.07 µM | >10 µM
4 | Cc1cc(N2C(=O)c3ccn(C)c3C2c2ccc(F)cc2)cn(C)c1=O (centres unmarked) [Example 82, 5-(1,5-dimethyl-6-oxo-1,6-dihydropyridin-3-yl)-6-(4-fluorophenyl)-1-methyl-5,6-dihydropyrrolo[3,4-b]pyrrol-4(1H)-one] | 104 nM | 206 nM | 195 nM | 4700 nM | 230 nM | 618 nM | 140 nM | 0.189 µM | 0.397 µM | >10 µM
5 | Cn1c(-c2ccn(C)c(=O)c2)cc2c1C(c1ccc(Cl)cc1)N(c1cc(Cl)c(=O)n(C)c1)C2=O (centres unmarked) [Example 41, 5-(5-chloro-1-methyl-6-oxo-1,6-dihydropyridin-3-yl)-6-(4-chlorophenyl)-1-methyl-2-(1-methyl-2-oxo-1,2-dihydropyridin-4-yl)-5,6-dihydropyrrolo[3,4-b]pyrrol-4(1H)-one] | 78.7 nM | 167 nM | 85 nM | 535 nM | 83 nM | 517 nM | 65.5 nM | 0.128 µM | 0.307 µM | >10 µM
6 | Cn1cc(N2C(=O)c3cc(-c4cccn(C)c4=O)n(C4CC4)c3C2c2ccc(Cl)cc2)cc(Cl)c1=O (centres unmarked) [Example 64, 5-(5-chloro-1-methyl-6-oxo-1,6-dihydropyridin-3-yl)-6-(4-chlorophenyl)-1-cyclopropyl-2-(1-methyl-2-oxo-1,2-dihydropyridin-3-yl)-5,6-dihydropyrrolo[3,4-b]pyrrol-4(1H)-one] | 118 nM | 109 nM | 85 nM | 1500 nM | 50 nM | 353 nM | 82 nM | 0.196 µM | 0.2155 µM | >10 µM
7 | Cn1cc(N2C(=O)c3cc(-c4cccc(=O)n4C)n(C4CC4)c3C2c2ccc(Cl)cc2)cc(Cl)c1=O (centres unmarked) [Example 62, 5-(5-chloro-1-methyl-6-oxo-1,6-dihydropyridin-3-yl)-6-(4-chlorophenyl)-1-cyclopropyl-2-(1-methyl-6-oxo-1,6-dihydropyridin-2-yl)-5,6-dihydropyrrolo[3,4-b]pyrrol-4(1H)-one] | 226 nM | 758 nM | 170 nM | 270 nM | 140 nM | 1030 nM | 130 nM | 0.329 µM | 1.19 µM | >10 µM

Stronger by GI50 (MV-4-11), values ahead:

Row | GI50 (MV-4-11) | GI50 (THP-1) | IC50 (BRD4) | IC50 (CREBBP) | IC50 (BRD2) | GI50 (K-562) | IC50 (BRD3) | Compound | MV-4-11 TGI (MV-4-11) | THP-1 TGI (THP-1) | K-562 TGI (K-562)
8 | 76.4 nM | 159 nM | 89.7 nM | 1430 nM | 170 nM | 294 nM | 90.8 nM | Cc1cc(N2C(=O)c3ccn(C)c3C2c2ccc(Cl)cc2)cn(C)c1=O (centres unmarked) [Example 72, 6-(4-chlorophenyl)-5-(1,5-dimethyl-6-oxo-1,6-dihydropyridin-3-yl)-1-methyl-5,6-dihydropyrrolo[3,4-b]pyrrol-4(1H)-one] | 0.125 µM | 0.301 µM | >10 µM
9 | 25.2 nM | 41.6 nM | 18 nM | 5100 nM | 41 nM | 132 nM | 34 nM | CCOC(=O)N1CC(n2cc(C)c3c2C(c2ccc(Cl)cc2)N(c2cc(C)c4nnc(C)n4c2)C3=O)C1 (centres unmarked) [Example 8, Ethyl 3-(6-(4-chlorophenyl)-5-(3,8-dimethyl-[1,2,4]triazolo[4,3-a]pyridin-6-yl)-3-methyl-4-oxo-5,6-dihydropyrrolo[3,4-b]pyrrol-1(4H)-yl)azetidine-1-carboxylate] | 0.03775 µM | 0.09395 µM | >10 µM
10 | 7.89 nM | 12.9 nM | 16 nM | > 37000 nM | 23 nM | 63.4 nM | 20 nM | Cc1cn(C2CN(C)C2)c2c1C(=O)N(c1cc(C)c3nnn(C)c3n1)C2c1ccc(Cl)cc1 (centres unmarked) [Example 20, 6-(4-chlorophenyl)-5-(3,7-dimethyl-3H-[1,2,3]triazolo[4,5-b]pyridin-5-yl)-3-methyl-1-(1-methylazetidin-3-yl)-5,6-dihydropyrrolo[3,4-b]pyrrol-4(1H)-one] | 0.02125 µM | 0.038 µM | >10 µM
11 | 28.7 nM | 46.8 nM | 63.2 nM | 620 nM | 67.2 nM | 148 nM | 52.2 nM | Cc1cc(N2C(=O)c3cc(C4CC4)n(C)c3C2c2ccc(Cl)cc2)cn(C)c1=O (centres unmarked) [Example 68, 6-(4-chlorophenyl)-2-cyclopropyl-5-(1,5-dimethyl-6-oxo-1,6-dihydropyridin-3-yl)-1-methyl-5,6-dihydropyrrolo[3,4-b]pyrrol-4(1H)-one] | 0.0517 µM | 0.096 µM | >10 µM
12 | 10.9 nM | 11.2 nM | 16 nM | > 37000 nM | 36 nM | 32.8 nM | 17 nM | CC(=O)Nc1cn(C)c2c1C(=O)N(c1cc(C)c3nnn(C)c3n1)C2c1ccc(Cl)cc1 (centres unmarked) [Example 96, N-(6-(4-chlorophenyl)-5-(3,7-dimethyl-3H-[1,2,3]triazolo[4,5-b]pyridin-5-yl)-1-methyl-4-oxo-1,4,5,6-tetrahydropyrrolo[3,4-b]pyrrol-3-yl)acetamide] | 0.0212 µM | 0.02125 µM | >10 µM
13 | 13.6 nM | 27.8 nM | < 11 nM | > 37000 nM | 16 nM | 138 nM | 13 nM | CNC(=O)c1cn(C)c2c1C(=O)N(c1cc(C)c3nnc(C)n3c1)C2c1ccc(Cl)cc1 (centres unmarked) [Example 99, 6-(4-chlorophenyl)-5-(3,8-dimethyl-[1,2,4]triazolo[4,3-a]pyridin-6-yl)-N,1-dimethyl-4-oxo-1,4,5,6-tetrahydropyrrolo[3,4-b]pyrrole-3-carboxamide] | 0.0383 µM | 0.096 µM | >10 µM
14 | 8.19 nM | 12.4 nM | 12 nM | > 37000 nM | 17 nM | 34.6 nM | 13 nM | Cc1cc(N2C(=O)c3c(C(=O)N(C)C)cn(C)c3C2c2ccc(Cl)cc2)nc2c1nnn2C (centres unmarked) [Example 94, 6-(4-chlorophenyl)-5-(3,7-dimethyl-3H-[1,2,3]triazolo[4,5-b]pyridin-5-yl)-N,N,1-trimethyl-4-oxo-1,4,5,6-tetrahydropyrrolo[3,4-b]pyrrole-3-carboxamide] | 0.02195 µM | 0.02985 µM | >10 µM
